Reference: US20220226484A1, “THERAPEUTIC PEPTIDES” (COHBAR, INC., priority 2019, published 2022)
Positions of bridges follow the written chain, without caps; N, C: chain ends. Non-standard residues stand in square brackets, D forms with d. Primed or numbered codes have the meaning given here. Chains are numbered I, II in the order given. No end group written: not given here. PEG12′ = not defined here; Nle = CCCC[C@H](N)C(=O)O

Columns and labels:
[1] = system: SH-SY5Y Neuroblastoma Cells Exposed to Staurosporine; assay: ATP levels in cells exposed to staurosporine; type: cell-based, human; conditions: peptide 10 μM with staurosporine, 18-20 hours; <100% cytoprotective, >100% synergistic
Description: Peptides were initially prepared as 10 mM stock in DMSO and tested at a final concentration of 10 μM (0.1% DMSO). […] […] CellTiter-Glo® Assay kit was purchased from Promega. SH-SY5Y human neuroblastoma cell line was purchased from American Type Culture Collection (Manassas, Va.) and licensed from Memorial Sloan-Kettering Cancer Center (New York, N.Y.). SH-SY5Y cells were grown in DMEM/F12 medium supplemented with 10% FBS with 100 IU/ml penicillin and 100 μg/ml streptomycin. Cultures were maintained at 37° C. in a humidified atmosphere of 5% CO2/95% air. SH-SY5Y cells were seeded at 30,000 cells per well on 96-well plates. […] ATP levels were determined using a CellTiter-Glo Assay kit (Promega) according to the manufacturer's instructions. Luminescence for each sample well on the plate was measured using a Cytation 3 plate reader (BioTek, Winooski, Vt.). […] A value less than 100% is indicative of a cytoprotective effect, while a value greater than 100% is indicative of a synergistic effect on viability.

[2] = system: A172 human brain glioblastoma cell line; assay: Caspase 3/7 activity (Caspase-Glo 3/7 Assay); type: cell-based; conditions: peptide 10 μM, 18-20 hours, relative to 0.1% DMSO control
Description: The effect of the peptides on cell death/survival can be assessed using a caspase-3/7 assay in cultured cells. Peptides were dissolved at 10 mM in DMSO as stock solutions for use at a final concentration of 10 μM. […] Caspase-Glo 3/7 Assay Reagent was purchased from Promega (Madison, Wis.). A172 human brain glioblastoma cell line was purchased from American Type Culture Collection (Manassas, Va.). A172 cells were grown in DMEM supplemented with 10% FBS with 100 IU/ml penicillin and 100 μg/ml streptomycin. Cultures were maintained at 37° C. in a humidified atmosphere of 5% CO2/95% air. A172 cells were seeded at 8,000 cells per well on 96-well plates. […] Caspase 3/7 activity was determined using a Caspase-Glo 3/7 Assay kit (Promega) according to the manufacturer's instructions. Luminescence for each sample well on the plate was measured using a Cytation 3 plate reader (BioTek, Winooski, Vt.). Activity was calculated relative to 0.1% DMSO control.

[3] = system: SH-SY5Y Neuroblastoma Cells; assay: ATP levels (CellTiter-Glo); type: cell-based, human; conditions: peptide 10 μM, 18-20 hours, relative to 0.1% DMSO treated control
Description: The effect of the peptides on cellular metabolism can be assessed using an assay of ATP levels in cultured cells such as human neuroblastoma cells. Peptides were initially prepared as 10 mM stock in DMSO and used at a final concentration of 10 μM (0.1% DMSO). […] CellTiter-Glo® Assay kit was purchased from Promega. SH-SY5Y human bone marrow neuroblastoma cell line was purchased from American Type Culture Collection (Manassas, Va.) and licensed from Memorial Sloan-Kettering Cancer Center (New York, N.Y.). SH-SY5Y cells were grown in DMEM/F12 medium supplemented with 10% FBS with 100 IU/ml penicillin and 100 μg/ml streptomycin. Cultures were maintained at 37° C. in a humidified atmosphere of 5% CO2/95% air. SH-SY5Y cells were seeded at 30,000 cells per well on 96-well plates. […] ATP levels were determined using a CellTiter-Glo Assay kit (Promega) according to the manufacturer's instructions. Luminescence for each sample well on the plate was measured using a Cytation 3 plate reader (BioTek, Winooski, Vt.). Activity was calculated relative to 0.1% DMSO treated control. The relative standard deviation of the result for the 0.1% DMSO treated control was <5%.

H4IIE Rat Hepatoma Cells = assay: Insulin-dependent effect on glucose production by cultured rat liver cells; type: cell-based; conditions: 24 hour; for Glucose Levels, MEAN % Control, +Insulin: peptide 10 μM + insulin 800 pM, percent of insulin (800 pM); for Glucose Levels, MEAN % Control, −Insulin: peptide 10 μM alone, percent of untreated control cells
Description: The effect of the peptides on glucose production was assessed in the absence and presence of insulin using an assay of glucose levels in cultured cells such as rat hepatocytes. Peptides were initially prepared as 10 mM stock in DMSO and used at a final concentration of 10 μM (0.1% DMSO). Insulin (800 pM) was used as a partial inhibitor of glucose production. H4-IIE cells purchased from ATCC (Manassas, Va.) were seeded at 100,000 cells/well in standard medium (DMEM/high glucose+10% FBS+1× Glutamax+antibiotics) on 96-well plates and allowed to adhere overnight at 37° C. in a humidified atmosphere of 5% CO2/95% air. Approximately 24 h after seeding, the medium was removed, cells rinsed with glucose free DMEM, and Glucose Production Medium (glucose free DMEM+2 mM sodium pyruvate+10 mM sodium lactate) was added. The cultures were placed at 37° C. in a humidified atmosphere of 5% CO2/95% air overnight. The next morning, the medium was removed and fresh Glucose Production Medium containing compounds was added. Insulin at 800 pM was added to control wells. Peptides (10 μM) in the absence or presence of insulin (800 pM) were added to test wells. Cells in the presence of compounds were placed at 37° C. in a humidified atmosphere of 5% CO2/95% air overnight. After 24 hour incubation, conditioned medium from each well was transferred to a fresh 96-well plate for quantitation of glucose content. Quantitation of glucose levels was determined using an Amplex Red Glucose Assay kit (Abacm; Cambridge, Mass.) according to the manufacturer's instructions using a Cytation 3 plate reader at 570 nm (BioTek, Winooski, Vt.). Absorbance values were expressed as a percent of untreated control cells (maximum glucose production) for peptide alone samples or insulin (800 pM) for peptides in the presence of insulin (800 pM. Glucose levels for insulin (800 pM) treatment were ˜80-90% of the untreated control values. The results are reported in Table 15.

| Substance | Percent of ATP Reduction Induced by Control [1] | Caspase 3/7 Activity, Percent of Control Activity [2] | ATP Levels, % Control [3] | Glucose Levels, MEAN % Control, +Insulin (H4IIE Rat Hepatoma Cells) | Glucose Levels, MEAN % Control, −Insulin (H4IIE Rat Hepatoma Cells) | Glucose Levels, MEAN % Control, +Insulin (H4IIE Rat Hepatoma Cells; listed as 5) | Glucose Levels, MEAN % Control, −Insulin (H4IIE Rat Hepatoma Cells; listed as 5) |
| --- | --- | --- | --- | --- | --- | --- | --- |
| MRVIRMCLGVGLLGDLAG [SEQ ID NO: 2] | 104.8% | 109.3% | 99.6% | 79.7% | 121% | – | – |
| R(dA)IR(Nle)SLNVGLLGEL(dA) (R[dA]IR[Nle]SLNVGLLGEL[dA]) [SEQ ID NO: 15] | – | – | – | 95.2% | 94.3% | – | – |
| RVIR(Nle)CLNVGLLGEL(dA)G (RVIR[Nle]CLNVGLLGEL[dA]G) [SEQ ID NO: 6] | – | – | – | 82.5% | 109% | – | – |
| RVIR(Nle)SLNVGLEGEL(dA) (RVIR[Nle]SLNVGLEGEL[dA]) [SEQ ID NO: 14] | – | – | – | 97.8% | 104% | – | – |
| RVIR(Nle)SLNVGLLGEL(dA)G (RVIR[Nle]SLNVGLLGEL[dA]G) [SEQ ID NO: 8] | – | – | – | 63.5% | 105% | – | – |
| RVIRMCLGVGLLGDL(dA)G (RVIRMCLGVGLLGDL[dA]G) [SEQ ID NO: 4] | 104.1% | 112.4% | 104.7% | 54.3% | 119% | – | – |
| RVIRMCLGVGLLGDLAG (disulfide I:6-II:6) [SEQ ID NO: 26] | – | – | – | 21% | 114% | – | – |
| RVIRMCLGVGLLGDLAG [SEQ ID NO: 3] | 108.4% | 109.4% | 101.5% | 39.9% | 121% | – | – |
| RVIRMCLGVGLLGDLAGK{PEG12} (RVIRMCLGVGLLGDLAGK(PEG12′)) [SEQ ID NO: 17] | – | – | – | 18.8% | 105% | – | – |
| RVIRMCLGVGLLGDLAGK{PEG12} (chain 1 RVIRMCLGVGLLGDLAGK(PEG12′); chain 2 RVIRMCLGVGLLGDLAGK(PEG12′); disulfide I:6-II:6) [SEQ ID NO: 28] | – | – | – | 23.9% | 92.0% | – | – |
| RVIRMCLNNGLLGEL(dA)G (RVIRMCLNNGLLGEL[dA]G) [SEQ ID NO: 9] | – | – | – | 19.1% | 103% | – | – |
| RVIRMCLNNGLNGEL(dA)E (RVIRMCLNNGLNGEL[dA]E) [SEQ ID NO: 23] | – | – | – | 3.1% | 36% | – | – |
| RVIRMCLNVGLLGEL(dA)E (RVIRMCLNVGLLGEL[dA]E) [SEQ ID NO: 12] | – | – | – | 57.8% | 107% | – | – |
| RVIRMCLNVGLLGEL(dA)G [SEQ ID NO: 5] (RVIRMCLNVGLLGEL[dA]G) | 108.0% | 107.0% | 100.8% | – | – | 54.5% | 117% |
| RVIRMCLNVGLNGEL(dA)G (RVIRMCLNVGLNGEL[dA]G) [SEQ ID NO: 11] | – | – | – | 32.7% | 105% | – | – |
| RVIRMCLNVGNLGEL(dA)G (RVIRMCLNVGNLGEL[dA]G) [SEQ ID NO: 10] | – | – | – | 38% | 101% | – | – |
| RVIRMSLNVGLEGEL(dA) (RVIRMSLNVGLEGEL[dA]) [SEQ ID NO: 13] | – | – | – | 46.8% | 71.4% | – | – |
| RVIRMSLNVGLLGEL(dA)G (RVIRMSLNVGLLGEL[dA]G) [SEQ ID NO: 7] | – | – | – | 74.4% | 89.2% | – | – |
